# Source: US8802713B2, “3-alkoxy-1-phenylpyrazole derivatives and pesticides” (Kumiai Chemical Industry Co., Ltd., priority 2007, dated 2014)
# Where two headings read alike, the source gives them in different places.
# Legend:
# brown rice planthopper = assay: Insecticidal test on brown rice planthopper; type: in vivo; settings: 144 h
# Method: A wettable powder prepared in accordance with Formulation Example 2 was diluted with water to a concentration of an active ingredient of 500 ppm. Rice sprouts were dipped in this solution and put in a plastic cup having a capacity of 60 mL. Ten third-instar larvae of brown rice planthopper were released in the cup, the cup was lidded and placed in a thermostatic chamber at 25° C. for 6 days, and the number of dead larvae were counted for calculation of the mortality by Equation 2. The test was carried out by one series system.
# diamondback moth = assay: Insecticidal test on diamondback moth; type: in vivo; settings: Plutella xylostella, 144 h
# Method: A wettable powder prepared in accordance with Formulation Example 2 was diluted with water to a concentration of an active ingredient of 500 ppm. Cabbage leaves were dipped in this solution and dried in air and then put in a plastic cup having a capacity of 60 mL. 10 second-instar larvae of diamondback moth were released in the cup and the cup was lidded. Then, the cup was placed in a thermostatic chamber at 25° C. for 6 days, and dead moths were counted for calculation of the mortality by Equation 2. The test was carried out by one series system.
# cotton aphid = assay: Insecticidal test on cotton aphid (seedling dip); type: in vivo; settings: Aphis gossypii, in Cucumis sativus, 72 h
# Method: A wettable powder prepared in accordance with Formulation Example 2 was diluted with water to a concentration of an active ingredient of 500 ppm. Cucumber seedlings which had been inoculated with larvae of cotton aphid were dipped in this solution and dried in air. The treated cucumber seedlings were placed in a thermostatic chamber at 25° C. for 3 days, and the live insects were counted for calculation of the mortality by Equation 2. The test was carried out by one series system.
# two-spotted spider mites = assay: Miticidal test on two-spotted spider mites (seedling dip); type: in vivo, Tetranvchus urticae; settings: Glycine max, 312 h; 500 ppm active ingredient, soybean seedlings with imago mites dipped, 25° C., 13 days; read-out: protective value
# Method: A wettable powder prepared in accordance with Formulation Example 2 was diluted with water to a concentration of an active ingredient of 500 ppm. Soybean seedlings which had been inoculated with imago two-spotted spider mites were dipped in the solution and dried in air. The treated soybean seedlings were placed in a thermostatic chamber at 25° C. for 13 days, and the number of live mites were assessed for calculation of the protective value by Equation 1. The test was carried out by one series system.
Compound,mortality at 500 ppm (brown rice planthopper) [%],mortality at 500 ppm (diamondback moth; in Brassica oleracea) [%],mortality at 500 ppm (cotton aphid) [%],pest or weed control at 500 ppm (two-spotted spider mites) [%],"mortality at 500 ppm (diamondback moth; 500 ppm active ingredient, cabbage leaves dipped, second-instar larvae, 25° C., 6 days, read-out: mortality) [%]"
"Cc1cc(F)c(-n2nc(OCC(F)(F)C(F)(F)F)cc2NC(=O)C(F)(F)F)cc1SCC(F)(F)F [1-29, 1-{2-fluoro-4-methyl-5-(2,2,2-trifluoroethylthio)phenyl}-3-(2,2,3,3,3-pentafluoropropoxy)-5-trifluoroacetylaminopyrazole]",≥ 90,≥ 90,≥ 90,≥ 90,
"Cc1cc(F)c(-n2nc(OCC(F)(F)C(F)(F)F)c(F)c2N)cc1SCC(F)(F)F [1-41, 5-amino-1-{2-fluoro-4-methyl-5-(2,2,2-trifluoroethylthio)phenyl}-4-fluoro-3-(2,2,3,3,3-pentafluoropropoxy)pyrazole]",≥ 90,,,,≥ 90
"Cc1cc(F)c(-n2nc(OCC(F)(F)C(F)(F)F)c(Cl)c2N)cc1SCC(F)(F)F [1-43, 5-amino-4-chloro-1-{2-fluoro-4-methyl-5-(2,2,2-trifluoroethylthio)phenyl}-3-(2,2,3,3,3-pentafluoropropoxy)pyrazole]",≥ 90,≥ 90,,≥ 90,
"Cc1cc(F)c(-n2nc(OCC(F)(F)C(F)(F)F)cc2C)cc1SCC(F)(F)F [1-91, 1-{2-fluoro-4-methyl-5-(2,2,2-trifluoroethylthio)phenyl}-5-methyl-3-(2,2,3,3,3-pentafluoropropoxy)pyrazole]",≥ 90,≥ 90,≥ 90,≥ 90,
"Cc1cc(F)c(-n2nc(OCC(F)(F)C(F)(F)F)cc2C#N)cc1SCC(F)(F)F [1-133, 5-cyano-1-{2-fluoro-4-methyl-5-(2,2,2-trifluoroethylthio)phenyl}-3-(2,2,3,3,3-pentafluoropropoxy)pyrazole]",≥ 90,≥ 90,≥ 90,≥ 90,
"CNc1cc(OC(F)(F)C(F)C(F)(F)F)nn1-c1cc(SCC(F)(F)F)c(C)cc1F (centres unmarked) [1-186, 1-{2-fluoro-4-methyl-5-(2,2,2-trifluoroethylthio)phenyl}-3-(1,1,2,3,3,3-hexafluoropropoxy)-5-methylaminopyrazole]",≥ 90,≥ 90,≥ 90,≥ 90,
"Cc1cc(F)c(-n2nc(OCC(F)(F)C(F)(F)F)cc2C=O)cc1SCC(F)(F)F [1-199, 1-{2-fluoro-4-methyl-5-(2,2,2-trifluoroethylthio)phenyl}-5-formyl-3-(2,2,3,3,3-pentafluoropropoxy)pyrazole]",,≥ 90,,≥ 90,
"Cc1cc(F)c(-n2nc(OCCC(F)(F)F)cc2C)cc1[S+]([O-])CC(F)(F)F (centres unmarked) [1-250, 1-{2-fluoro-4-methyl-5-(2,2,2-trifluoroethylsulfinyl)phenyl}-5-methyl-3-(3,3,3-trifluoropropoxy)pyrazole]",≥ 90,,≥ 90,≥ 90,
"Cc1cc(F)c(-n2nc(OC(F)(F)C(F)C(F)(F)F)cc2Cl)cc1SCC(F)(F)F (centres unmarked) [1-253, 5-chloro-1-{2-fluoro-4-methyl-5-(2,2,2-trifluoroethylthio)phenyl}-3-(1,1,2,3,3,3-hexafluoropropoxy)pyrazole]",≥ 90,,≥ 90,≥ 90,
"Cc1cc(F)c(-n2nc(OC(F)(F)C(F)C(F)(F)F)cc2Cl)cc1[S+]([O-])CC(F)(F)F (centres unmarked) [1-254, 5-chloro 1-{2-fluoro-4-methyl-5-(2,2,2-trifluoroethylsulfinyl)phenyl}-3-(1,1,2,3,3,3-hexafluoropropoxy)pyrazole]",≥ 90,,≥ 90,≥ 90,
"CNc1c(Cl)c(OC(F)(F)C(F)C(F)(F)F)nn1-c1cc(SCC(F)(F)F)c(C)cc1F (centres unmarked) [1-261, 4-chloro-1-{2-fluoro-4-methyl-5-(2,2,2-trifluoroethylthio)phenyl}-3-(1,1,2,3,3,3-hexafluoropropoxy)-5-methylaminopyrazole]",≥ 90,≥ 90,,≥ 90,
"CNc1c(Cl)c(OC(F)(F)C(F)C(F)(F)F)nn1-c1cc([S+]([O-])CC(F)(F)F)c(C)cc1F (centres unmarked) [1-262, 4-chloro-1-{2-fluoro-4-methyl-5-(2,2,2-trifluoroethylsulfinyl)phenyl}-3-(1,1,2,3,3,3-hexafluoropropoxy)-5-methylaminopyrazole]",≥ 90,≥ 90,,≥ 90,
"Cc1cc(F)c(-n2nc(OC(F)(F)C(F)C(F)(F)F)c(Cl)c2N)cc1SCC(F)(F)F (centres unmarked) [1-263, 5-amino-4-chloro-1-{2-fluoro-4-methyl-5-(2,2,2-trifluoroethylthio)phenyl}-3-(1,1,2,3,3,3-hexafluoropropoxy)pyrazole]",≥ 90,≥ 90,,≥ 90,
"Cc1cc(F)c(-n2nc(OC(F)(F)C(F)C(F)(F)F)c(Cl)c2N)cc1[S+]([O-])CC(F)(F)F (centres unmarked) [1-264, 5-amino-4-chloro 1-{2-fluoro-4-methyl-5-(2,2,2-trifluoroethylsulfinyl)phenyl}-3-(1,1,2,3,3,3-hexafluoropropoxy)pyrazole]",≥ 90,≥ 90,,≥ 90,
"Cc1cc(F)c(-n2nc(OC(F)(F)C(F)OC(F)(F)F)c(Cl)c2Cl)cc1SCC(F)(F)F (centres unmarked) [1-291, 4,5-dichloro-1-{2-fluoro-4-methyl-5-(2,2,2-trifluoroethylthio)phenyl}-3-{1,1,2-trifluoro-2-(trifluoromethoxy)ethoxy}pyrazole]",≥ 90,≥ 90,,≥ 90,
"Cc1cc(F)c(-n2nc(OC(F)(F)C(F)OC(F)(F)F)c(Cl)c2Cl)cc1[S+]([O-])CC(F)(F)F (centres unmarked) [1-292, 4,5-dichloro-1-{2-fluoro-4-methyl-5-(2,2,2-trifluoroethylsulfinyl)phenyl}-3-{1,1,2-trifluoro-2-(trifluoromethoxy)ethoxy}pyrazole]",≥ 90,≥ 90,,≥ 90,
"Cc1cc(F)c(-n2nc(OC(F)(F)C(F)OC(F)(F)F)cc2C#N)cc1SCC(F)(F)F (centres unmarked) [1-668, 5-cyano-1-{2-fluoro-4-methyl-5-(2,2,2-trifluoroethylthio)phenyl}-3-{1,1,2-trifluoro-2-(trifluoromethoxy)ethoxy}pyrazole]",≥ 90,≥ 90,≥ 90,≥ 90,
"COc1cc(OC(F)(F)C(F)OC(F)(F)F)nn1-c1cc(SCC(F)(F)F)c(C)cc1F (centres unmarked) [1-794, 1-{2-fluoro-4-methyl-5-(2,2,2-trifluoroethylthio)phenyl}-5-methoxy-3-{1,1,2-trifluoro-2-(trifluoromethoxy)ethoxy}pyrazole]",≥ 90,≥ 90,≥ 90,≥ 90,
"Cc1cc(F)c(-n2nc(OC(F)(F)C(F)OC(F)(F)F)cc2CF)cc1[S+]([O-])CC(F)(F)F (centres unmarked) [1-1580, 1-{2-fluoro-4-methyl-5-(2,2,2-trifluoroethylsulfinyl)phenyl}-5-fluoromethyl-3-{1,1,2-trifluoro-2-(trifluoromethoxy)ethoxy}pyrazole]",≥ 90,,≥ 90,≥ 90,
"Cc1cc(F)c(-n2ccc(C(F)(F)F)n2)cc1SCC(F)(F)F [V-613, reference compound]",,,0,,
